Counter-ions that a name gives are not always drawn.
Tested on: Human Platelet Rich Plasma
Assay: ADP induced Aggregation of Human Platelet Rich Plasma
Assay type: cell-based
Details: 37° C., half-maximal inhibition, read-out: Human Platelet Agg IC50
Method: Healthy aspirin free donors were randomly selected from a pool of volunteers. The harvesting of platelet rich plasma and subsequent ADP induced platelet aggregation assays were performed as described in Zucker, M. B., "Platelet Aggregation Measured by the Photometric Method", Methods in Enzymology 169(1989):117-133. Standard venipuncture techniques using a butterfly allowed the withdrawal of 45 mL of whole blood into a 60 mL syringe containing 5 mL of 3.8% trisodium citrate. Following thorough mixing in the syringe, the anti-coagulated whole blood was transferred to a 50 mL conical polyethylene tube. The blood was centrifuged at room temperature for 12 minutes at 200 xg to sediment non-platelet cells. Platelet rich plasma was removed to a polyethylene tube and stored at room temperature until used. Platelet poor plasma was obtained from a second centrifugation of the remaining blood at 2000 xg for 15 minutes. Platelet counts are typically 300,000 to 500,000 per microliter. Platelet rich plasma (0.45 mL) was aliquoted into siliconized cuvettes and stirred (1100 rpm) at 37° C. for 1 minute prior to adding 50 uL of pre-diluted test compound. […] Aggregation was recorded for 3 minutes in a Payton dual channel aggregometer (Payton Scientific, Buffalo, N.Y.). […] All compounds were tested in duplicate and half-maximal inhibition (IC50) was calculated graphically from the dose response curve.

IC50 [µM]	Compound
200	N=C(N)NCCCC(=O)NCCC(=O)NC(CC(=O)O)c1cccnc1 (racemic) [Example 5, (±) β-[[3-[[4-[(aminoiminomethyl)amino]-1-oxobutyl]amino]-1-oxopropyl]amino]-3-pyridinepropanoic acid, bistrifluoroacetate salt]
20	N=C(N)NCCCCC(=O)NCC(=O)NC(CC(=O)O)c1cccnc1 (stereo not drawn) [Example 1, β-[[2-[[5-[(aminoiminomethyl)amino]-1-oxopentyl]amino]-1-oxoethyl]amino]-3-pyridinepropanoic acid, bistrifluoroacetate salt]

From patent US5798370A, “Platelet aggregation inhibitors” (G. D. Searle & Co., priority 1996, dated 1998)
